Results on 15 compounds are retold here after ChEMBL document CHEMBL1155521, “Synthesis and antibacterial activity of novel 4''-O-arylalkylcarbamoyl and 4''-O-((arylalkylamino)-4-oxo-butyl)carbamoyl clarithromycin derivatives” (2010).

Each structure is given as a SMILES string. Converted amounts (≈) assume the structure as drawn.

The MIC is the least concentration at which growth counts as inhibited.

Holding throughout (type): functional
The subject of assay [1] is Streptococcus pneumoniae. The assay is described as follows: Antibacterial activity against erythromycin-resistant Streptococcus pneumoniae AB1-1 expressing erm and mef gene by broth microdilution method.
In assay [2] the test system is Streptococcus pneumoniae. The assay can be described thus: Antibacterial activity against erythromycin-susceptible Streptococcus pneumoniae ATCC 49619 by broth microdilution method. (Broth dilution looks for growth in wells or tubes with falling amounts of substance.)
The test system of assay [3] is Streptococcus pneumoniae. The assay can be described thus: Antibacterial activity against erythromycin-resistant Streptococcus pneumoniae B1 expressing erm gene by broth microdilution method.
Assay [4] has as its system Streptococcus pneumoniae. The assay is described as follows: Antibacterial activity against erythromycin-resistant Streptococcus pneumoniae A22072 expressing mef gene by broth microdilution method.

For `CC[C@H]1OC(=O)[C@H](C)[C@@H](O[C@H]2C[C@@](C)(OC)[C@@H](OC(=O)NCc3ccccc3)[C@H](C)O2)[C@H](C)[C@@H](O[C@@H]2O[C@H](C)C[C@H](N(C)C)[C@H]2O)[C@](C)(OC)C[C@@H](C)C(=O)[C@H](C)[C@@H](O)[C@]1(C)O`, the MIC in assay [1] was 8 µg/mL (≈ 9.08 µM); in assay [2], 0.25 µg/mL (≈ 0.284 µM); in assay [3] it was 4 µg/mL (≈ 4.54 µM); in assay [4], 0.25 µg/mL (≈ 0.284 µM).

For the compound `CC[C@H]1OC(=O)[C@H](C)[C@@H](O[C@H]2C[C@@](C)(OC)[C@@H](OC(=O)NCc3ccc(F)cc3)[C@H](C)O2)[C@H](C)[C@@H](O[C@@H]2O[C@H](C)C[C@H](N(C)C)[C@H]2O)[C@](C)(OC)C[C@@H](C)C(=O)[C@H](C)[C@@H](O)[C@]1(C)O`, the MIC in assay [1] worked out at 8 µg/mL (≈ 8.9 µM); in assay [2] it was 0.06 µg/mL (≈ 0.0667 µM); in assay [3], 4 µg/mL (≈ 4.45 µM); in assay [4], 0.5 µg/mL (≈ 0.556 µM).

Turning to `CC[C@H]1OC(=O)[C@H](C)[C@@H](O[C@H]2C[C@@](C)(OC)[C@@H](OC(=O)NCc3ccc(OC)cc3)[C@H](C)O2)[C@H](C)[C@@H](O[C@@H]2O[C@H](C)C[C@H](N(C)C)[C@H]2O)[C@](C)(OC)C[C@@H](C)C(=O)[C@H](C)[C@@H](O)[C@]1(C)O`, the MIC in assay [1] was 32 µg/mL (≈ 35.1 µM); in assay [2] it was 0.03 µg/mL (≈ 0.0329 µM); in assay [3] it was 16 µg/mL (≈ 17.6 µM); in assay [4] it was 0.25 µg/mL (≈ 0.274 µM).

For `CC[C@H]1OC(=O)[C@H](C)[C@@H](O[C@H]2C[C@@](C)(OC)[C@@H](OC(=O)NCCc3ccc(O)cc3)[C@H](C)O2)[C@H](C)[C@@H](O[C@@H]2O[C@H](C)C[C@H](N(C)C)[C@H]2O)[C@](C)(OC)C[C@@H](C)C(=O)[C@H](C)[C@@H](O)[C@]1(C)O`, the MIC in assay [1] is 64 µg/mL (≈ 70.2 µM); in assay [2] it was 0.03 µg/mL (≈ 0.0329 µM); in assay [3] it was 16 µg/mL (≈ 17.6 µM); in assay [4], 1 µg/mL (≈ 1.1 µM).

For `CC[C@H]1OC(=O)[C@H](C)[C@@H](O[C@H]2C[C@@](C)(OC)[C@@H](OC(=O)NCCc3ccccc3Cl)[C@H](C)O2)[C@H](C)[C@@H](O[C@@H]2O[C@H](C)C[C@H](N(C)C)[C@H]2O)[C@](C)(OC)C[C@@H](C)C(=O)[C@H](C)[C@@H](O)[C@]1(C)O`, the MIC in assay [1] was 128 µg/mL (≈ 138 µM); in assay [2] it was 0.12 µg/mL (≈ 0.129 µM); in assay [3], 128 µg/mL (≈ 138 µM); in assay [4] it was 4 µg/mL (≈ 4.3 µM).

Take `CC[C@H]1OC(=O)[C@H](C)[C@@H](O[C@H]2C[C@@](C)(OC)[C@@H](OC(=O)NCCc3ccccc3)[C@H](C)O2)[C@H](C)[C@@H](O[C@@H]2O[C@H](C)C[C@H](N(C)C)[C@H]2O)[C@](C)(OC)C[C@@H](C)C(=O)[C@H](C)[C@@H](O)[C@]1(C)O`: the MIC in assay [1] is 32 µg/mL (≈ 35.7 µM); in assay [2], 0.06 µg/mL (≈ 0.067 µM); in assay [3] it was 16 µg/mL (≈ 17.9 µM); in assay [4] it was 0.5 µg/mL (≈ 0.559 µM).

For the compound `CC[C@H]1OC(=O)[C@H](C)[C@@H](O[C@H]2C[C@@](C)(OC)[C@@H](OC(=O)NCCc3ccc4c(c3)OCO4)[C@H](C)O2)[C@H](C)[C@@H](O[C@@H]2O[C@H](C)C[C@H](N(C)C)[C@H]2O)[C@](C)(OC)C[C@@H](C)C(=O)[C@H](C)[C@@H](O)[C@]1(C)O`, the MIC in assay [1] amounted to 64 µg/mL (≈ 68.1 µM); in assay [2] it was 0.06 µg/mL (≈ 0.0639 µM); in assay [3], 32 µg/mL (≈ 34.1 µM); in assay [4], 0.25 µg/mL (≈ 0.266 µM).

Turning to `CC[C@H]1OC(=O)[C@H](C)[C@@H](O[C@H]2C[C@@](C)(OC)[C@@H](OC(=O)NCCCC(=O)NCc3ccccc3)[C@H](C)O2)[C@H](C)[C@@H](O[C@@H]2O[C@H](C)C[C@H](N(C)C)[C@H]2O)[C@](C)(OC)C[C@@H](C)C(=O)[C@H](C)[C@@H](O)[C@]1(C)O`, the MIC in assay [1] came out at 0.25 µg/mL (≈ 0.259 µM); in assay [2], 0.03 µg/mL (≈ 0.031 µM); in assay [3], 2 µg/mL (≈ 2.07 µM); in assay [4], 0.5 µg/mL (≈ 0.517 µM).

On to `CC[C@H]1OC(=O)[C@H](C)[C@@H](O[C@H]2C[C@@](C)(OC)[C@@H](OC(=O)NCCCC(=O)NCc3ccc(F)cc3)[C@H](C)O2)[C@H](C)[C@@H](O[C@@H]2O[C@H](C)C[C@H](N(C)C)[C@H]2O)[C@](C)(OC)C[C@@H](C)C(=O)[C@H](C)[C@@H](O)[C@]1(C)O`, for which the MIC in assay [1] is 2 µg/mL (≈ 2.03 µM); in assay [2], 0.03 µg/mL (≈ 0.0305 µM); in assay [3] it was 1 µg/mL (≈ 1.02 µM); in assay [4], 0.25 µg/mL (≈ 0.254 µM).

For `CC[C@H]1OC(=O)[C@H](C)[C@@H](O[C@H]2C[C@@](C)(OC)[C@@H](OC(=O)NCCCC(=O)NCc3ccc(OC)cc3)[C@H](C)O2)[C@H](C)[C@@H](O[C@@H]2O[C@H](C)C[C@H](N(C)C)[C@H]2O)[C@](C)(OC)C[C@@H](C)C(=O)[C@H](C)[C@@H](O)[C@]1(C)O`, the MIC in assay [1] is 1 µg/mL (≈ 1 µM); in assay [2], 0.03 µg/mL (≈ 0.0301 µM); in assay [3], 0.06 µg/mL (≈ 0.0602 µM); in assay [4], 0.25 µg/mL (≈ 0.251 µM).

As to `CC[C@H]1OC(=O)[C@H](C)[C@@H](O[C@H]2C[C@@](C)(OC)[C@@H](OC(=O)NCCCC(=O)NCCc3ccc(O)cc3)[C@H](C)O2)[C@H](C)[C@@H](O[C@@H]2O[C@H](C)C[C@H](N(C)C)[C@H]2O)[C@](C)(OC)C[C@@H](C)C(=O)[C@H](C)[C@@H](O)[C@]1(C)O`, the MIC in assay [1] amounted to 1 µg/mL (≈ 1 µM); in assay [2], 0.03 µg/mL (≈ 0.0301 µM); in assay [3] it was 0.25 µg/mL (≈ 0.251 µM); in assay [4], 0.5 µg/mL (≈ 0.502 µM).

Consider `CC[C@H]1OC(=O)[C@H](C)[C@@H](O[C@H]2C[C@@](C)(OC)[C@@H](OC(=O)NCCCC(=O)NCCc3ccccc3Cl)[C@H](C)O2)[C@H](C)[C@@H](O[C@@H]2O[C@H](C)C[C@H](N(C)C)[C@H]2O)[C@](C)(OC)C[C@@H](C)C(=O)[C@H](C)[C@@H](O)[C@]1(C)O`, for which the MIC in assay [1] is 32 µg/mL (≈ 31.5 µM); in assay [2], 0.03 µg/mL (≈ 0.0296 µM); in assay [3] it was 32 µg/mL (≈ 31.5 µM); in assay [4] it was 1 µg/mL (≈ 0.986 µM).

Take `CC[C@H]1OC(=O)[C@H](C)[C@@H](O[C@H]2C[C@@](C)(OC)[C@@H](O)[C@H](C)O2)[C@H](C)[C@@H](O[C@@H]2O[C@H](C)C[C@H](N(C)C)[C@H]2O)[C@](C)(O)C[C@@H](C)CN(C)[C@H](C)[C@@H](O)[C@]1(C)O` [AZITHROMYCIN]: the MIC in assay [1] came to 256 µg/mL (≈ 342 µM); in assay [2] it was 0.03 µg/mL (≈ 0.0401 µM); in assay [3], 128 µg/mL (≈ 171 µM); in assay [4] it was 4 µg/mL (≈ 5.34 µM).

For `CC[C@H]1OC(=O)[C@H](C)[C@@H](O[C@H]2C[C@@](C)(OC)[C@@H](O)[C@H](C)O2)[C@H](C)[C@@H](O[C@@H]2O[C@H](C)C[C@H](N(C)C)[C@H]2O)[C@](C)(OC)C[C@@H](C)C(=O)[C@H](C)[C@@H](O)[C@]1(C)O` [CLARITHROMYCIN], the MIC in assay [1] came to 128 µg/mL (≈ 171 µM); in assay [2] it was 0.03 µg/mL (≈ 0.0401 µM); in assay [3], 64 µg/mL (≈ 85.6 µM); in assay [4] it was 4 µg/mL (≈ 5.35 µM).

For `CC[C@H]1OC(=O)[C@H](C)[C@@H](O[C@H]2C[C@@](C)(OC)[C@@H](O)[C@H](C)O2)[C@H](C)[C@@H](O[C@@H]2O[C@H](C)C[C@H](N(C)C)[C@H]2O)[C@](C)(O)C[C@@H](C)C(=O)[C@H](C)[C@@H](O)[C@]1(C)O` [ERYTHROMYCIN], the minimum inhibitory concentration (MIC) amounted to 256 µg/mL (≈ 349 µM) in assay [1], 0.03 µg/mL (≈ 0.0409 µM) in assay [2], 128 µg/mL (≈ 174 µM) in assay [3] and 8 µg/mL (≈ 10.9 µM) in assay [4].
